This assay has as its target T1, CCDC6-RET (Homo sapiens, UniProt P07949+Q16204+Q96SW2).
T1 construct: CCDC6 (natural N-terminal fusion partner, UniProt Q16204); endogenous in cells; host or cells: TPC-1 (parental, papillary thyroid carcinoma)
Put plainly: Cellular RET degradation, AlphaLISA, TPC-1 cell line. Type of assay: cell-based. The note with it: for Dmax: TPC1, human, 24 h, read-out: Cell Density TPC-1/CCDC6-RET Ymax %; for DC50: read-out: Cell Density TPC-1/CCDC6-RET DC50, half-maximal degradation concentration, TPC-1 (CCDC6-RET), 24 hrs. The method, boiled down:
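TPC-1 papillary thyroid carcinoma cells (endogenous CCDC6-RET) in DMEM with 2% FBS, compound-treated 24 h at 37 °C. RET in lysates quantified by AlphaLISA luminescence, normalized to media-only and DMSO wells; DC50 and maximal degradation from 4-parameter logistic fit.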
Background: Bead proximity is the source of the signal in Alpha formats.

The structures appear in SMILES notation. Some results are limits rather than exact numbers.

T1 sequence (Q16204+P07949 fused): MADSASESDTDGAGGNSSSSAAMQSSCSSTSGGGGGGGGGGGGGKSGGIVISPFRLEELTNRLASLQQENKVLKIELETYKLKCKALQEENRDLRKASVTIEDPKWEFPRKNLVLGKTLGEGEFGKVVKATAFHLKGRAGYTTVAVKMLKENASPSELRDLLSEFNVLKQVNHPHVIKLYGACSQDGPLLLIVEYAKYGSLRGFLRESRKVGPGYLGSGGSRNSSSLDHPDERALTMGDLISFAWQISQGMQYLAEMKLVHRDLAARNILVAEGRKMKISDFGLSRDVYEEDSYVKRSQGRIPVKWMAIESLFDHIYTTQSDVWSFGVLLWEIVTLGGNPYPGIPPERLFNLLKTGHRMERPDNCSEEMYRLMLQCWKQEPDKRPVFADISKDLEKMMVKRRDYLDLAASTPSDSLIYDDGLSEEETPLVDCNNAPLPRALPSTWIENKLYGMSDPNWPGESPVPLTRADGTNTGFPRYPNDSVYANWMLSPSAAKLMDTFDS
T1 sequence (Q96SW2 whole entry, the tested form may be a part): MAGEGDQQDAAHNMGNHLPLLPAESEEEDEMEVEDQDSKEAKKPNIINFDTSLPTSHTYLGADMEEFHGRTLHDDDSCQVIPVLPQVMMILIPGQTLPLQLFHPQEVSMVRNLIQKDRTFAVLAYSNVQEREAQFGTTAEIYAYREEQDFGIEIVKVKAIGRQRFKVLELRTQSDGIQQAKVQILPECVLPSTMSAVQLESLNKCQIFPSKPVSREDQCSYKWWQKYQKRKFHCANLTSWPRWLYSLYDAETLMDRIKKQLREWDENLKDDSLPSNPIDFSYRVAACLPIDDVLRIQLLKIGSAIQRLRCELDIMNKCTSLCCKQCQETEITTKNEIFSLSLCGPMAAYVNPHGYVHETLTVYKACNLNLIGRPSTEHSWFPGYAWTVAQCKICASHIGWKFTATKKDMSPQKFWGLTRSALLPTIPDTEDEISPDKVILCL
T1 sequence (Q16531 whole entry partner, the tested form may be a part): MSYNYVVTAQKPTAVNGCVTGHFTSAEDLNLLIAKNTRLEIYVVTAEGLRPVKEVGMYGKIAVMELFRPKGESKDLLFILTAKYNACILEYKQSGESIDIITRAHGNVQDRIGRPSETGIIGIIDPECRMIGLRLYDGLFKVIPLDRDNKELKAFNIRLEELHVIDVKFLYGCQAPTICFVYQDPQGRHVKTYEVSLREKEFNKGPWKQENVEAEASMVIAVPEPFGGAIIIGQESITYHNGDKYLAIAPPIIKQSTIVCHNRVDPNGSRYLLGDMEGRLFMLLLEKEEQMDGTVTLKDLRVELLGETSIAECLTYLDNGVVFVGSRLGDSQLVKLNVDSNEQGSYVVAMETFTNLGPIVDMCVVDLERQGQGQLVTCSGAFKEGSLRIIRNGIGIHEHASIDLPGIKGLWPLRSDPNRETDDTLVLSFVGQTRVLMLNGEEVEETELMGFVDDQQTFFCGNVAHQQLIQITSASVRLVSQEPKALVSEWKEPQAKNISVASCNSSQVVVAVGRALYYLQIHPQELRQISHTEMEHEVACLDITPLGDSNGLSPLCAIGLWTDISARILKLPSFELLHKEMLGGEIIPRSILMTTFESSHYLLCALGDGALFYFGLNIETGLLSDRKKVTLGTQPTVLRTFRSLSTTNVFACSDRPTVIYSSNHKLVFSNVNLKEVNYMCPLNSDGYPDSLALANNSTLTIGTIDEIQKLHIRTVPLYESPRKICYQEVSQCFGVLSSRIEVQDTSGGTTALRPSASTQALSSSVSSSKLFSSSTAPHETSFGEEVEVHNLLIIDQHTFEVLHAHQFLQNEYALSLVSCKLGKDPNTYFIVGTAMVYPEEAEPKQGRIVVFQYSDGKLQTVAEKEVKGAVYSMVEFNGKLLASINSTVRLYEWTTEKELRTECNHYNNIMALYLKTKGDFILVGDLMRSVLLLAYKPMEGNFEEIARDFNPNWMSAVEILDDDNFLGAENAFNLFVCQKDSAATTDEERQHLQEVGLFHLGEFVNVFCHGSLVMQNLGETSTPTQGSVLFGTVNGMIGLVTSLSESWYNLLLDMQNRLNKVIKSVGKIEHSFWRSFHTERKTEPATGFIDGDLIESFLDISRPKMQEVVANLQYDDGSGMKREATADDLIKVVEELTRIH

For the compound `CCOc1cc(-c2ccc(N3CCC(CN4CCN(C(=O)CCCCCCCCNc5ccc6c(C7CCC(=O)NC7=O)nn(C)c6c5)CC4)(NC(=O)c4cc(F)ccc4F)CC3)nc2)c2c(C#N)cnn2c1` (stereo not shown) [Example 25, N-[1-(5-{3-cyano-6-ethoxypyrazolo[1,5-a]pyridin-4-yl}pyridin-2-yl)-4-{[4-(9-{[3-(2,6-dioxopiperidin-3-yl)-1-methyl-1H-indazol-6-yl]amino}nonanoyl)piperazin-1-yl]methyl}piperidin-4-yl]-2,5-difluorobenzamide], the Dmax is above 90% and the DC50 lay within 2 to 10 nM.
The corresponding values for `CCOc1cc(-c2ccc(N3CCC(Cc4ccccc4)(NC(=O)C4CCN(C(=O)CCN5CCC(c6ccc7c(c6)C(=O)N(C6CCC(=O)NC6=O)C7)CC5)CC4)CC3)nc2)c2c(C#N)cnn2c1` (stereo not shown) [Example 52, N-[4-benzyl-1-[5-(3-cyano-6-ethoxy-pyrazolo[1,5-a]pyridin-4-yl)-2-pyridyl]-4-piperidyl]-1-[3-[4-[2-(2,6-dioxo-3-piperidyl)-3-oxo-isoindolin-5-yl]-1-piperidyl]propanoyl]piperidine-4-carboxamide] are above 90% and 2 to 10 nM.
For `CCOc1cc(-c2ccc(N3CCC(CN4CCN(C(=O)C5CC6(C5)CC(N5CCC(c7ccc8c(c7)CN(C7CCC(=O)NC7=O)C8=O)CC5)C6)CC4)(NC(=O)c4cc(F)ccc4F)CC3)nc2)c2c(C#N)cnn2c1` (stereo not shown) [Example 92, N-[1-(5-{3-cyano-6-ethoxypyrazolo[1,5-a]pyridin-4-yl}pyridin-2-yl)-4-{[4-(6-{4-[2-(2,6-dioxopiperidin-3-yl)-1-oxo-2,3-dihydro-1H-isoindol-5-yl]piperidin-1-yl}spiro[3.3]heptane-2-carbonyl)piperazin-1-yl]methyl}piperidin-4-yl]-2,5-difluorobenzamide] the same measures were above 90% and 2 to 10 nM.
The corresponding values for `CCOc1cc(-c2ccc(N3CCC(NC(=O)c4cc(F)ccc4F)(C(=O)NCCCCN4CCN(c5ccc6c(c5)C(=O)N(C5CCC(=O)NC5=O)C6)CC4)CC3)nc2)c2c(C#N)cnn2c1` (stereo not shown) [Example 159, 1-(5-{3-cyano-6-ethoxypyrazolo[1,5-a]pyridin-4-yl}pyridin-2-yl)-4-(2,5-difluorobenzamido)-N-(4-{4-[2-(2,6-dioxopiperidin-3-yl)-3-oxo-2,3-dihydro-1H-isoindol-5-yl]piperazin-1-yl}butyl)piperidine-4-carboxamide] are 60 to 90% and 2 to 10 nM.
Turning to `CCOc1cc(-c2ccc(N3CCC(CN4CCC5(CC4)CCN(C(=O)Cc4ccc6c(c4)CN(C4CCC(=O)NC4=O)C6=O)CC5)(NC(=O)c4cc(F)ccc4F)CC3)nc2)c2c(C#N)cnn2c1` (stereo not shown) [Example 98, N-[1-(5-{3-cyano-6-ethoxypyrazolo[1,5-a]pyridin-4-yl}pyridin-2-yl)-4-[(9-{2-[2-(2,6-dioxopiperidin-3-yl)-1-oxo-2,3-dihydro-1H-isoindol-5-yl]acetyl}-3,9-diazaspiro[5.5]undecan-3-yl)methyl]piperidin-4-yl]-2,5-difluorobenzamide], the Dmax is above 90% and the DC50 lay within 2 to 10 nM.
Consider `CCOc1cc(-c2ccc(N3CCC(CN4CCN(CCC(=O)N5CCN(c6ccc7c(c6)C(=O)N(C6CCC(=O)NC6=O)C7)CC5)CC4)(NC(=O)c4cc(F)ccc4F)CC3)nc2)c2c(C#N)cnn2c1` (stereo not shown) [Example 115, N-[1-(5-{3-cyano-6-ethoxypyrazolo[1,5-a]pyridin-4-yl}pyridin-2-yl)-4-{[4-(3-{4-[2-(2,6-dioxopiperidin-3-yl)-3-oxo-2,3-dihydro-1H-isoindol-5-yl]piperazin-1-yl}-3-oxopropyl)piperazin-1-yl]methyl}piperidin-4-yl]-2,5-difluorobenzamide], for which the Dmax lay in the range of 60 to 90% and the DC50 fell in the range of 10 to 100 nM.
For `CCOc1cc(-c2ccc(N3CCC(CN4CC5(C4)CN(C(=O)COc4ccc6c(c4)CN(C4CCC(=O)NC4=O)C6=O)C5)(NC(=O)c4cc(F)ccc4F)CC3)nc2)c2c(C#N)cnn2c1` (stereo not shown) [Example 97, N-[1-(5-{3-cyano-6-ethoxypyrazolo[1,5-a]pyridin-4-yl}pyridin-2-yl)-4-{[6-(2-{[2-(2,6-dioxopiperidin-3-yl)-1-oxo-2,3-dihydro-1H-isoindol-5-yl]oxy}acetyl)-2,6-diazaspiro[3.3]heptan-2-yl]methyl}piperidin-4-yl]-2,5-difluorobenzamide] the same measures were 60 to 90% and 2 to 10 nM.
With `CCOc1cc(-c2ccc(N3CCC(CN4CCN(C(=O)CCN5CC(c6ccc7c(c6)CN(C6CCC(=O)NC6=O)C7=O)C5)CC4)(NC(=O)c4cc(F)ccc4F)CC3)nc2)c2c(C#N)cnn2c1` (stereo not shown) [Example 119, N-[1-(5-{3-cyano-6-ethoxypyrazolo[1,5-a]pyridin-4-yl}pyridin-2-yl)-4-{[4-(3-{3-[2-(2,6-dioxopiperidin-3-yl)-1-oxo-2,3-dihydro-1H-isoindol-5-yl]azetidin-1-yl}propanoyl)piperazin-1-yl]methyl}piperidin-4-yl]-2,5-difluorobenzamide], the Dmax is above 90% and the DC50 fell in the range of 2 to 10 nM.

The values are drawn from patent publication US20260356830A1, “COMPOUNDS FOR MODULATING RET PROTEIN” (Bristol-Myers Squibb Company, priority 2022, published 2026).
